SMILES strings stand for the structures. pIC50: −log10 of the molar value.

This passage reports IC50 results from patent US20170291905A1, “ARGININE […] INHIBITORS AND USES THEREOF” (Epizyme, Inc., priority 2014, published 2017).

For this assay, the target named is T1, full-length human PRMT1 isoform 1 (GST-tagged) (Homo sapiens, UniProt Q99873).
T1 construct: GST-tagged PRMT1 was eluted with 50 mM Tris, 2 mM glutathione, pH 7.8, dialysed in buffer A and concentrated; made in house; host or cells: High Five insect cells (baculovirus)
T1 sequence (Q99873 with tags, fused parts or gaps): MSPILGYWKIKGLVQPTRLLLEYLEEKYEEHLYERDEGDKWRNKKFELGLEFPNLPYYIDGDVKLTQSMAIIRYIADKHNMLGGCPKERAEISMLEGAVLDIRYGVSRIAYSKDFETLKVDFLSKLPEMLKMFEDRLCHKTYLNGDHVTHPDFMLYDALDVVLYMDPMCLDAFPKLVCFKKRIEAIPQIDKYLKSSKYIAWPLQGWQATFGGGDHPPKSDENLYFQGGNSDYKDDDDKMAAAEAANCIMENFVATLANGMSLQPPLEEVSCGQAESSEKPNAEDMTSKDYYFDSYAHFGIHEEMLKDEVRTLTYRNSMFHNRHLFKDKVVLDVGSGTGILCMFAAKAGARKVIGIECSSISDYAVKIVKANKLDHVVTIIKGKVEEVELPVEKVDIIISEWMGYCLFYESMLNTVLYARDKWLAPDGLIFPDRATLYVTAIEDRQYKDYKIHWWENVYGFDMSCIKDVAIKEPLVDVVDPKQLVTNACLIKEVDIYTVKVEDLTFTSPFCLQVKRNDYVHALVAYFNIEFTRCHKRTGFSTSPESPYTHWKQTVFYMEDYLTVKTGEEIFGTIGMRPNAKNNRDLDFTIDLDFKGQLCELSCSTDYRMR
As to the kind of experiment: PRMT1 biochemical assay (3H-SAM Flashplate, histone H4 36-50 peptide). As to conditions: 0.5 nM PRMT1, 30 min preincubation, 20 nM peptide. Summed up:
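GST-PRMT1 (0.5 nM) preincubated 30 min at room temperature with compound in bicine buffer pH 7.6. Reaction then run with 200 nM 3H-SAM plus 1.5 uM SAM and 20 nM biotinylated H4 36-50 peptide, 2% DMSO. Stopped with excess cold SAM, and methylated peptide captured on streptavidin Flashplates for counting; % inhibition versus DMSO and 1 mM SAH controls, 3- or 4-parameter fit.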
Broadly, the pIC50 is −log10 of the IC50, conventionally taken in molar units. Higher therefore signals a low IC50. `CCC1(CC)C[C@]2(CC[C@@H](c3n[nH]cc3CN(C)CCNC)CC2)NC1=O` [compound 48, (5r,8r)-3,3-diethyl-8-(4-((methyl(2-(methylamino)ethyl)amino)methyl)-1H-pyrazol-3-yl)-1-azaspiro[4.5]decan-2-one] showed a negative logarithm of the IC50 (pIC50) of 7.45. In turn, `CNCCN(C)Cc1c[nH]nc1C1CCC(COC)(COCC2CCOCC2)CC1` (stereo not drawn) [compound 45] showed a negative-log IC50 (pIC50) of 7.48.

`CCC1(CC)C[C@]2(CC[C@H](c3n[nH]cc3CN(C)CCNC)CC2)NC1=O` [compound 47, (5s,8s)-3,3-diethyl-8-(4-((methyl(2-(methylamino)ethyl)amino)methyl)-1H-pyrazol-3-yl)-1-azaspiro[4.5]decan-2-one] had a negative-log IC50 (pIC50) of 7.82. As for `CNCCN(C)Cc1c[nH]nc1C1CCC(COCCC2CCOCC2)(COCCC2CCOCC2)CC1` [compound 40], the negative logarithm of the IC50 (pIC50) was 7.68. In turn, `CNCCN(C)Cc1c[nH]nc1C1CCC(COCC2CC2)(COCC2CC2)CC1` [compound 41, N1-((3-(4,4-bis((cyclopropylmethoxy)methyl)cyclohexyl)-1H-pyrazol-4-yl)methyl)-N1,N2-dimethylethane-1,2-diamine] gave a pIC50 of 8.36.

`CNCCN(C)Cc1c[nH]nc1C1CCC(CO)(CO)CC1` [compound 44, (4-(4-((methyl(2-(methylamino)ethyl)amino)methyl)-1H-pyrazol-3-yl)cyclohexane-1,1-diyl)dimethanol] had a pIC50 of 7.67. `CNCCN(C)Cc1c[nH]nc1C1=CCC2(CC1)CC(C)(C)CO2` (stereo not drawn) [compound 46, N1-((3-(3,3-dimethyl-1-oxaspiro[4.5]dec-7-en-8-yl)-1H-pyrazol-4-yl)methyl)-N1,N2-dimethylethane-1,2-diamine] showed a negative-log IC50 (pIC50) of 7.70. As to `CN(C)CCN(C)Cc1c[nH]nc1[C@H]1CC[C@@]2(CC1)CC(C)(C)CO2` [compound 42, N1-((3-((5S,8S)-3,3-dimethyl-1-oxaspiro[4.5]decan-8-yl)-1H-pyrazol-4-yl)methyl)-N1,N2,N2-trimethylethane-1,2-diamine], the negative-log IC50 (pIC50) is 7.50. Consider `CCOCCOCC1(COCCOCC)CCC(c2n[nH]cc2CN(C)CCNC)CC1` [compound 39, N1-((3-(4,4-bis((2-ethoxyethoxy)methyl)cyclohexyl)-1H-pyrazol-4-yl)methyl)-N1,N2-dimethylethane-1,2-diamine], for which the pIC50 was 7.51. `CC[C@H]1CC[C@@H](c2n[nH]cc2CN(C)CCNC)CC1` [compound 1] gave a pIC50 of 8.32. To `CNCCN(C)Cc1ccnn1[C@H]1CC[C@@]2(CC1)CC(C)(C)CO2` [compound 49, N1-((1-((5s,8s)-3,3-dimethyl-1-oxaspiro[4.5]decan-8-yl)-1H-pyrazol-5-yl)methyl)-N1,N2-dimethylethane-1,2-diamine] belongs 7.71; to `CN(C)CCN(C)Cc1c[nH]nc1[C@H]1CC[C@]2(CC1)CC(C)(C)CO2` [compound 43, N1-((3-((5r,8r)-3,3-dimethyl-1-oxaspiro[4.5]decan-8-yl)-1H-pyrazol-4-yl)methyl)-N1,N2,N2-trimethylethane-1,2-diamine], 7.24.
